According to patent US8304416B2, “Chromenone derivatives” (Merck Patent GmbH, priority 2003, dated 2012):

Tests used:
Type in all cases: biochemical
Tie2 = Tie2 (Homo sapiens, UniProt Q02763); test: Inhibition of Tie2
RAF = test: Inhibition of RAF
PKB = PKB (Homo sapiens, UniProt P31749); test: Inhibition of PKB
PKB, sequence (P31749 whole entry, species assumed): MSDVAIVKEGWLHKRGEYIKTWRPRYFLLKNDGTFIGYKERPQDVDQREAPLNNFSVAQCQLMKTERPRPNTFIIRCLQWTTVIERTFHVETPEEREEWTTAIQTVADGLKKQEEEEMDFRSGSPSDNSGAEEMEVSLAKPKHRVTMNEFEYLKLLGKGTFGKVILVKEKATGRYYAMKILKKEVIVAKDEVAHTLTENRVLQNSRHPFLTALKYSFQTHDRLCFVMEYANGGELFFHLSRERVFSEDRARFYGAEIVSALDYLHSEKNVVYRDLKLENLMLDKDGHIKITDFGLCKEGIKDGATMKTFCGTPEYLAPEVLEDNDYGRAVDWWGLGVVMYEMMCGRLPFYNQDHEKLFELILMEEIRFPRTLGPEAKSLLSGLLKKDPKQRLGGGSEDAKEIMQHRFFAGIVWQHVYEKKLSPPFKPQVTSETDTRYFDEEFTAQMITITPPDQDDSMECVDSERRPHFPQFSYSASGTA

Tie2, sequence (Q02763 23-1124, species assumed): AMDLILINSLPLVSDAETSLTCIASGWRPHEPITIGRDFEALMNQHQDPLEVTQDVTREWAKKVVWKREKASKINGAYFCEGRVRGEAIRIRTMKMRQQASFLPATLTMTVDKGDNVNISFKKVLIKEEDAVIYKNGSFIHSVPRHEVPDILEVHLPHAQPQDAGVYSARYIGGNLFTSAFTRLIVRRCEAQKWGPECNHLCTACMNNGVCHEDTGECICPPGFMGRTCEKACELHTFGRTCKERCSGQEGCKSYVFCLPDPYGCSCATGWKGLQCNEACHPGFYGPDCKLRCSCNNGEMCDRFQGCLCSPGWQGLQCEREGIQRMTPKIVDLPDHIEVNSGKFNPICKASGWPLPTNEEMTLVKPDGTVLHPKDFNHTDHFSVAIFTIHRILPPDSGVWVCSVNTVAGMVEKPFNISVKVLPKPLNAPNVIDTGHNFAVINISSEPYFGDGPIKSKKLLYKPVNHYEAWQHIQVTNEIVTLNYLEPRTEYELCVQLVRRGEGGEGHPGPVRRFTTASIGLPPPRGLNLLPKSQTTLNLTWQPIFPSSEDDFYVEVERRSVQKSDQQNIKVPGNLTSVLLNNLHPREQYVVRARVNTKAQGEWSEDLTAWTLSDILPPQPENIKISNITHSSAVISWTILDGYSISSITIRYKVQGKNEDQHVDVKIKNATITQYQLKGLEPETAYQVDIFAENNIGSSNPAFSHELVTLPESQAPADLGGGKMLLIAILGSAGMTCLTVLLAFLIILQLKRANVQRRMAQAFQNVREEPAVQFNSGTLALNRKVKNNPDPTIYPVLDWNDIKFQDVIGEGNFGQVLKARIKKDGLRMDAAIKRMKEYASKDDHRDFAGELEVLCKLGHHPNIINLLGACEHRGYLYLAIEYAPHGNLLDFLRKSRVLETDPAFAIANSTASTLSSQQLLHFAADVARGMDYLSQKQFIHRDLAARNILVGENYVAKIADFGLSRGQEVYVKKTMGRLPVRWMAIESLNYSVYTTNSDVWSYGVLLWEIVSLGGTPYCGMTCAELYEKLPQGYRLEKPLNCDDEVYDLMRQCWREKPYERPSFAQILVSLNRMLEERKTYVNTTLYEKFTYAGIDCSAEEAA

Row | SMILES | IC50 (Tie2) [µM] | IC50 (RAF) [µM] | IC50 (PKB) [µM]
1 | Cn1ccnc1C(=O)c1cc(=O)c2cc(O)ccc2o1 | > 10 | > 1 | > 10
2 | O=C(c1ccccn1)c1cc(=O)c2c(O)cc(O)cc2o1 | > 10 | > 1 | > 10
3 | O=C(c1cc(=O)c2cc(O)ccc2o1)c1nc2ccccc2s1 | > 10 | > 1 | > 10
4 | Cn1ccnc1C(=O)c1cc(=O)c2c(O)cc(O)cc2o1 | > 10 | > 1 | > 10
5 | O=C(c1cc(=O)c2cc(O)ccc2o1)c1ncc(Cl)nc1Cl | > 10 | > 1 | 9.4
6 | O=C(c1ccccn1)c1cc(=O)c2cc(O)ccc2o1 | > 10 | > 1 | > 10
